Reference: patent publication US9610331B2, “Methods for hematopoietic precursor mobilization” (Yeda Research and Development Co. Ltd., priority 2009, dated 2017)
Ends that are not written are not given here. * marks the point of attachment. Palmitoyl = CCCCCCCCCCCCCCCC(=O)*

B1: G-CSF: recombinant human G-CSF (Neupogen, Amgen) (protein, UniProt P09919 31-207, looked up)
Granulocyte …: TPLGPASSLPQSFLLKCLEQVRKIQGDGAALQEKLVSECATYKLCHPEELVLLGHSLGIPWAPLSSCPSQALQLAGCLSQLHSGLFLYQGLLQALEGISPELGPTLDTLQLDVADFATTIWQQMEELGMAPALQPTQGAMPAFASAFQRRAGGVLVASHLQSFLEVSYRVLRHLAQP
modifications: filgrastim

Key:
HSPC = settings: after a single injection; cited from earlier work
C57BL mice = assay: G-CSF induced splenomegaly (spleen weight) in C57BL mice; type: in vivo
Experimental: All animals were maintained under conditions approved by the Institutional Animal Care and Use Committee at the Weizmann Institute. The study protocol was approved by the ethics committees at Weizmann Institute. In these experiments, 8 to 10 week old immune competent C57BL mice were used. All mice were kept in small cages (up to five animals per cage) and fed sterile food.
Mice were treated by daily subcutaneous injections of recombinant human G-CSF (Neupogen, Amgen) at a dose of 250 μg per kg per day for 7 days. To determine the spleen weight, mice were euthanized and spleens were harvested 7 days after the initiation of G-CSF treatment.
Dabigatran etexilate (Boehringer Ingelheim Pharma KG, Biberach, Germany) was administered orally at a dosage of 30 mg/kg. A final volume of 0.3 ml dissolved in DDW was administered daily.
The palmitoylated peptides: pal-RCLSSSAVANRS (PAR1 antagonist, SEQ ID NO: 1) and pal-SGRRYGHALR (PAR4 antagonist, SEQ ID NO: 2) were prepared by solid-phase peptide synthesis using in situ neutralization/HBTU by Hadar Biotec, Israel. The mice were treated by vehicle control, or with PAR1 antagonist or PAR4 antagonist at 0.5 mg/kg, intraperitoneally on daily basis.

[1] = test system: hematopoietic progenitors; assay: Colony-forming assay of spleen cells (CFU/spleen); type: in vivo, mice; settings: for precursor mobilization (CFU/spleen), enhancement as compared to non-treated mice: antagonist added to G-CSF treatment; for circulating CFU/spleen compared with C57BL/6 mice: at 7 days after G-CSF treatment, P<0.05 vs C57BL/6 (n=5), FIG. 3 legend
Experimental: All animals were maintained under conditions approved by the Institutional Animal Care and Use Committee at the Weizmann Institute. The study protocol was approved by the ethics committees at Weizmann Institute. In these experiments, 8 to 10 week old immune competent C57BL mice and C57BL hemophilic (C57BL Hem F8) mice were used. All mice were kept in small cages (up to five animals per cage) and fed sterile food. Cells were plated in 0.9% methylcellulose (Sigma Chemical Co.), 30% FCS, DMEM medium (Sigma Chemical Co.), 50 ng/ml stem cell factor (SCF), 5 ng/ml IL-3 (R&D Systems Inc.), 5 ng/ml GM-CSF (R&D Systems Inc.), and 2 U/ml erythropoietin (EPO; Orto Bio Tech, Don Mills, Ontario, Canada). Total spleen cells 5×10^5 were seeded in semisolid cultures. Colonies were scored 7 days later under an inverted microscope (CK2; Olympus), applying morphological criteria. To study the role of thrombin in the mobilization of hematopoietic progenitors, inventors enumerated these cells by their ability to form colonies in semi-solid media. Thus, after 7 days of treatment with G-CSF with or without PAR antagonists, the number of hematopoietic progenitors in the spleen was estimated by plating the low density mononuclear cells in methylcellulose containing appropriate nutrients and growth factors (see materials and experimental procedures, above). The plates were incubated for 7 days and the colonies were scored using a low magnification microscope. The number of progenitors mobilized into the spleen was presented as CFU/spleen (FIG. 3). […] However, the addition of PAR1 or PAR4 antagonists to G-CSF treatment led to further enhancement of precursor mobilization by 15.3 and 6.4 fold, respectively (as compared to non-treated mice). Likewise, in Factor VIII knock out (KO) mice, which have low thrombin levels due to the absence of Factor VIII, an enhancement of spleen colonies by a factor of 15.9 was recorded upon treatment with G-CSF.

bone marrow (BM) cells = assay: Cellular composition of bone marrow by flow cytometry; type: in vivo, mouse; settings: for B cells (B220) / Granulocytes (Gr-1) / Macrophages (CD11b) / T cells (CD3): bone marrow, C57BL mice, 7 days treatment, mean ± SD
Experimental: (§1) Membrane expression of different molecules on mouse bone marrow (BM) and spleen cells was detected by flow cytometry, using one- or two-step staining procedures.
(§2) Cellular composition of the hematopoietic compartment was stained by CD3-FITC, B220-PE, CD-11b allophycocyanin and Gr-1 FITC ((Pharmigen, BD).
(§3) After staining, cells were washed and analyzed LSRII (Becton Dickinson) using FlowJo software.
(§4) Comparisons between the different groups were evaluated using the Student's test. Data were expressed as mean±SD, and were considered statistically significant at p values of 0.05 or less.

spleen cells = assay: Cellular composition of spleen by flow cytometry; type: in vivo, mouse; settings: for B cells (B220) / Granulocytes (Gr-1) / Macrophages (CD11b) / T cells (CD3): spleen, C57BL mice, 7 days treatment, mean ± SD
Experimental: as §1, §2, §3, §4

Lin−Kit+Sca+ stem cell = assay: Lin-Kit+Sca+ stem cell numbers in blood, spleen and BM by FACS; type: in vivo, mouse; settings: FIG. 4
Description: Membrane expression of different molecules on mouse bone marrow (BM), spleen and peripheral blood (PB) mononuclear cells (MNCs) was detected by flow cytometry, using one- or two-step staining procedures.
Cells were stained for lineage negative Lin− (CD3, B220, CD11b, Gr-1 and Ten-119 were biotinilated and detected by strepavidine Pe-Cy7), stem cell factor receptor positive (c-kit allophycocyanin+), stem cell antigen-1 positive (Sca-1 PE+) using Pharmigen, BD.
After staining, cells were washed and analyzed on LSRII (Becton Dickinson) using FlowJo software.
as §4

CD34+ cells = settings: cited from earlier work
C57BL/6 mice = settings: 7 day daily G-CSF treatment of C57BL/6 mice; cited from earlier work
[2] = with G-CSF for 7 days, antagonist 0.5 mg/kg intraperitoneally daily, FIG. 2

Molecule	precursor mobilization (CFU/spleen), enhancement as compared to non-treated mice ([1]; 7 days, C57BL mice, FIG. 3)	circulating CFU/spleen compared with C57BL/6 mice [1]	G-CSF induced splenomegaly (C57BL mice; [2])	B cells (B220) (bone marrow (BM) cells)	Granulocytes (Gr-1) (bone marrow (BM) cells)	Macrophages (CD11b) (bone marrow (BM) cells)	T cells (CD3) (bone marrow (BM) cells)	B cells (B220) (spleen cells)	Granulocytes (Gr-1) (spleen cells)	Macrophages (CD11b) (spleen cells)	T cells (CD3) (spleen cells)	also measured
zymosan	–	–	–	–	–	–	–	–	–	–	–	time to mobilize HSPC (HSPC): ≤ 1 h
CCCCCCOC(=O)NC(=N)c1ccc(NCc2nc3cc(C(=O)N(CCC(=O)OCC)c4ccccn4)ccc3n2C)cc1 [Dabigatran, Dabigatran etexilate, reference compound]	–	–	–	–	–	–	–	–	–	–	–	G-CSF induced splenomegaly (C57BL mice; in conjunction with G-CSF 250 μg per kg per day s.c. for 7 days, Dabigatran etexilate 30 mg/kg orally daily, FIG. 1): marked enhancement
pal-SGRRYGHALR (Palmitoyl-SGRRYGHALR) [PAR4 antagonist]	6.4 fold	more	significantly enhanced	16.16 ± 7.26%	50.58 ± 9.74%	41.06 ± 12.93%	2.93 ± 1.54%	46.34 ± 4.23 %	4.41 ± 2.08%	3.53 ± 1.49%	39.63 ± 3.52%	B cell numbers in the BM (bone marrow (BM) cells; Table 2): reduced; B cell numbers in the spleen (spleen cells; summary of Table 1): reduced
pal-RCLSSSAVANRS (Palmitoyl-RCLSSSAVANRS) [PAR1 antagonist]	15.3 fold	more	significantly enhanced	13.42 ± 5%	38.26 ± 5.31%	34.40 ± 5.16%	2.28 ± 0.46%	50.57 ± 4.36%	3.99 ± 2.42%	2.96 ± 1.18%	39.59 ± 3.41%	Lin−Kit+Sca+ stem cell number in the blood and the spleen (Lin−Kit+Sca+ stem cell; co-treatment with G-CSF): highest increase; Lin−Kit+Sca+ stem cell numbers in the bone marrow (Lin−Kit+Sca+ stem cell; co-treatment with G-CSF): clearly enhanced; Lin−Kit+Sca+ stem cells numbers in the blood and especially in the BM (Lin−Kit+Sca+ stem cell; without G-CSF treatment): marked enhancement
c1cc(CN2CCCNCCNCCCNCC2)ccc1CN1CCCNCCNCCCNCC1 [AMD3100]	–	–	–	–	–	–	–	–	–	–	–	mobilization capacity of G-CSF (CD34+ cells; in combination with G-CSF in mice): significantly improves; mobilization of CD34+ cells (CD34+ cells; on its own): adequately
B1	–	–	–	3.18 ± 1.01%	77.06 ± 7.38%	74.37 ± 7.79%	0.98 ± 0.85%	47.37 ± 1.33%	10.21 ± 2.69%	8.16 ± 2.07%	34.16 ± 3.17%	enhancement of spleen colonies ([1]; Factor VIII knock out (KO) mice, upon treatment with G-CSF): 15.9 fold; mobilization of progenitors (CFU/spleen), enhancement as compared to non-treated mice ([1]; G-CSF treatment alone, 7 days, C57BL mice, FIG. 3): 2.8 fold; number of granulocytes and macrophages in the BM (bone marrow (BM) cells; after G-CSF treatment, Table 2): marked elevation; hematopoietic stem cell (HSC) mobilization and splenomegaly (C57BL/6 mice): induced; number of granulocytes and macrophages in the spleen (spleen cells; after G-CSF treatment, summary of Table 1): marked elevation
